Each structure is given as a SMILES string.

The assay has as its target T1, human URAT1 (Homo sapiens, UniProt Q96S37).
T1 construct: Human URAT1 full length cDNA was subcloned to expression vector pcDNA3.1; expressed in transfected cells; host or cells: HEK293 cells (pcDNA3.1, geneticin-selected)
T1 sequence (Q96S37 1-553): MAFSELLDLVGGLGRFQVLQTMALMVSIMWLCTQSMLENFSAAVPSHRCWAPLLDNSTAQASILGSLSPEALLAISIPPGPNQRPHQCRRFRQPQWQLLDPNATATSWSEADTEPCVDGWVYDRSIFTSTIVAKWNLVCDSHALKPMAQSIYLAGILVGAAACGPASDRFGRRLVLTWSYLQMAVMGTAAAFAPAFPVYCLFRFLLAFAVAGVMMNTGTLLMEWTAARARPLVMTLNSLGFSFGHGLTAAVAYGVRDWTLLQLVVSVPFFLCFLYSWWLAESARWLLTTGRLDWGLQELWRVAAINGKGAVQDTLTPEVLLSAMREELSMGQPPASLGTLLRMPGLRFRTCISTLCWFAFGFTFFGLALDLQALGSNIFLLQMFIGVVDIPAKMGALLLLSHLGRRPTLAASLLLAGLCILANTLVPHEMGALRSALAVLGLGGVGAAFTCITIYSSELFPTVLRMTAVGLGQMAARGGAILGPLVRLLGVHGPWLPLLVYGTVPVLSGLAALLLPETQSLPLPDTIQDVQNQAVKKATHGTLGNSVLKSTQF
The assay can be described thus: Uric acid transport inhibitory test using human URAT1-expressing cells. In kind it is cell-based. The following applies: human URAT1-expressing HEK293 cells, 14C-uric acid 50 μM, uptake 5 min, room temperature; read-out: hURAT1 IC50. An excerpt: Experimental Example 1 Uric Acid Transport Inhibitory Test Using Human URAT1-Expressing Cells
Human URAT1 full length cDNA was subcloned to expression vector pcDNA3.1 and human URAT1 gene was transfected into human embryonic kidney derived cell line (HEK293 cells) by liposome method using Lipofectamine2000. Simultaneously, HEK293 cells transfected with expression vector pcDNA3.1 alone (hereinafter mock cells) were also produced. HEK293 cells expressing human URAT1 gene or mock cells were selected with geneticin resistance as an index. The functional expression of human URAT1 gene was confirmed by a method similar to the following method, using ^14C-uric acid transport into the cells as an index.
Human URAT1-expressing HEK293 cells or mock cells were cultured in Dulbecco's modified Eagle's MEM medium (high glucose) containing 10% fetal bovine serum, 0.5 mg/mL geneticin sulfate, 100 units/mL penicillin and 100 μg/mL streptomycin under the conditions of 37° C. and 5% CO2 in an incubator. The cells were plated in a 96 well plate (poly-D-Lysine coated) at 1×10^5 cells/well and the following uric acid transport inhibitory test was performed 24 hr later. This test was performed at room temperature.
After the medium was removed by aspiration from each well, the cells were washed once with Hank's Balanced Salt Solution (HBSS) and preincubated with HBSS (100 μL/well) for 5 min. HBSS was aspirated and an assay buffer (wherein NaCl in the above-mentioned HBSS had been substituted with Na-gluconate) containing various concentrations of the Example compound and a radioactive ligand (14C-uric acid; final concentration 50 μM) was added to each well at 50 μL/well and an uptake reaction was carried out for 5 min. After the reaction, the cells were washed twice with ice-cold HBSS (150 μL/well), and Microscinti™ 20 (PerkinElmer) was added at 50 μL/well. The cells were lysed by stirring and the radioactivity of each well was measured by a liquid scintillation counter (TOP COUNT, Packard).
The uric acid transport rate (%) of the Example compound at each concentration was calculated relative to the radioactivity (difference in radioactivity between human URAT1-expressing HEK293 cells and mock cells without addition of Example compound (DMSO addition)) showing URAT1 specific uric acid transport as 100%, and the concentration (IC50) of the Example compound necessary for inhibiting the uric acid transport rate by 50% was determined. In Table 24-Table 27, “+++” means IC50 value of less than 300 nM, “++” means IC50 value of 300 nM to less than 3000 nM, and “+” means IC50 value of not less than 3000 nM.
One may read the IC50 as the concentration at which inhibition is half-maximal. Regarding `COC(=O)CN1C(=O)COc2ccccc21` [Example 1, (3-oxo-2,3-dihydrobenzo[1,4]oxazin-4-yl)acetic acid methyl ester], the half-inhibitory concentration (IC50) was at least 3 µM. Take `COC(=O)CN1C(=O)CSc2ccccc21` [Example 2, (3-oxo-2,3-dihydrobenzo[1,4]thiazin-4-yl)acetic acid methyl ester]: the half-inhibitory concentration (IC50) was at least 3 µM. With `O=C(O)CN1C(=O)COc2ccccc21` [Example 3, (3-oxo-2,3-dihydrobenzo[1,4]oxazin-4-yl)acetic acid] the figure was at least 3 µM. As to `O=C(O)CN1C(=O)CSc2ccccc21` [Example 4, (3-oxo-2,3-dihydrobenzo[1,4]thiazin-4-yl)acetic acid], the concentration for half-maximal inhibition (IC50) was at least 3 µM. For the molecule `CC1(C)Oc2ccccc2N(CC(=O)O)C1=O` [Example 5, (2,2-dimethyl-3-oxo-2,3-dihydrobenzo[1,4]oxazin-4-yl)acetic acid], the half-inhibitory concentration (IC50) was at least 3 µM. Under `CC(C)C1Oc2ccccc2N(CC(=O)O)C1=O` (stereo not drawn) [Example 6, (2-isopropyl-3-oxo-2,3-dihydrobenzo[1,4]oxazin-4-yl)acetic acid] stands at least 3 µM. On to `CC(C)c1cccc2c1O[C@@H](C(C)C)C(=S)N2CC(=O)O` [Example 7, ((S)-2,8-diisopropyl-3-thioxo-2,3-dihydrobenzo[1,4]oxazin-4-yl)acetic acid], for which the IC50 fell in the range of 0.3 to 3 µM. Under `CC(C)c1cccc2c1O[C@H](C(C)C)C(=S)N2CC(=O)O` [Example 8, ((R)-2,8-diisopropyl-3-thioxo-2,3-dihydrobenzo[1,4]oxazin-4-yl)acetic acid] stands 0.3 to 3 µM; under `CC(C)c1cccc2c1OCC(=O)N2CC(=O)O` [Example 10, (8-isopropyl-3-oxo-2,3-dihydrobenzo[1,4]oxazin-4-yl)acetic acid], at least 3 µM. Under `CC1(C)Oc2ccccc2N(CC(=O)O)C1=S` [Example 11, (2,2-dimethyl-3-thioxo-2,3-dihydrobenzo[1,4]oxazin-4-yl)acetic acid] stands at least 3 µM; under `O=C(O)CN1C(=S)CSc2ccccc21` [Example 12, (3-thioxo-2,3-dihydrobenzo[1,4]thiazin-4-yl)acetic acid], at least 3 µM; under `CC(C)C1Oc2ccccc2N(CC(=O)O)C1=S` (stereo not drawn) [Example 13, (2-isopropyl-3-thioxo-2,3-dihydrobenzo[1,4]oxazin-4-yl)acetic acid], at least 3 µM.

As for `CC(C)c1cccc2c1OCC(=S)N2CC(=O)O` [Example 15, (8-isopropyl-3-thioxo-2,3-dihydrobenzo[1,4]oxazin-4-yl)acetic acid], the IC50 was at least 3 µM. With `O=C(O)CN1C(=S)COc2ccccc21` [Example 17, (3-thioxo-2,3-dihydrobenzo[1,4]oxazin-4-yl)acetic acid] the figure was at least 3 µM.

With `CC(C)c1cccc2c1OC(C(C)C)C(=O)N2CCCC(=O)O` (stereo not drawn) [Example 18, 4-(2,8-diisopropyl-3-oxo-2,3-dihydrobenzo[1,4]oxazin-4-yl)butyric acid], the half-maximal inhibitory concentration (IC50) was at least 3 µM. Under `O=C(O)CCN1C(=O)COc2ccccc21` [Example 19, 3-(3-oxo-2,3-dihydrobenzo[1,4]oxazin-4-yl)propionic acid] stands at least 3 µM; under `CC(C)c1cccc2c1OC(C(C)C)C(=S)N2CCCC(=O)O` (stereo not drawn) [Example 20, 4-(2,8-diisopropyl-3-thioxo-2,3-dihydrobenzo[1,4]oxazin-4-yl)butyric acid], at least 3 µM. On to `CC(C)c1cccc2c1OC(C(C)C)CN2C(=O)CCC(=O)O` (stereo not drawn) [Example 21, 4-(2,8-diisopropyl-2,3-dihydrobenzo[1,4]oxazin-4-yl)-4-oxobutyric acid], for which the half-maximal inhibitory concentration (IC50) was at least 3 µM. Turning to `CC(C)C1Sc2ccccc2N(CCC(=O)O)C1=O` (stereo not drawn) [Example 22, 3-(2-isopropyl-3-oxo-2,3-dihydrobenzo[1,4]thiazin-4-yl)propionic acid], the IC50 was 0.3 to 3 µM. As for `O=C(O)CCC(=O)N1CCOc2ccccc21` [Example 23, 4-(2,3-dihydrobenzo[1,4]oxazin-4-yl)-4-oxobutyric acid], the IC50 was at least 3 µM. Under `O=C(O)CCCC(=O)N1CCOc2ccccc21` [Example 24, 5-(2,3-dihydrobenzo[1,4]oxazin-4-yl)-5-oxovaleric acid] stands at least 3 µM; under `O=C(O)/C=C\C(=O)N1CCOc2ccccc21` [Example 25, (Z)-4-(2,3-dihydrobenzo[1,4]oxazin-4-yl)-4-oxo-2-butenoic acid], at least 3 µM; under `CC(C)c1cccc2c1OC(c1ccccc1)C(=O)N2CC(=O)O` (stereo not drawn) [Example 26, (8-isopropyl-3-oxo-2-phenyl-2,3-dihydrobenzo[1,4]oxazin-4-yl)acetic acid], at least 3 µM. Under `O=C(O)CCCCC(=O)N1CCOc2ccccc21` [Example 27, 6-(2,3-dihydrobenzo[1,4]oxazin-4-yl)-6-oxohexanoic acid] stands at least 3 µM; under `O=C(O)/C=C/C(=O)N1CCOc2ccccc21` [Example 28, (E)-4-(2,3-dihydrobenzo[1,4]oxazin-4-yl)-4-oxo-2-butenoic acid], at least 3 µM. Take `CC(C)c1cccc2c1OC(C(C)C)CN2C(=O)C(=O)O` (stereo not drawn) [Example 29, (2,8-diisopropyl-2,3-dihydrobenzo[1,4]oxazin-4-yl)oxoacetic acid]: the half-inhibitory concentration (IC50) was at least 3 µM. Under `CC(C)C1Sc2ccccc2N(CC(=O)O)C1=O` (stereo not drawn) [Example 30, (2-isopropyl-3-oxo-2,3-dihydrobenzo[1,4]thiazin-4-yl)acetic acid] stands at least 3 µM; under `CC(C)c1cccc2c1OC(C(C)C)CN2C(=O)CC(=O)O` (stereo not drawn) [Example 31, 3-(2,8-diisopropyl-2,3-dihydrobenzo[1,4]oxazin-4-yl)-3-oxopropionic acid], at least 3 µM; under `CC(C)C1Oc2ccccc2N(CCC(=O)O)C1=O` (stereo not drawn) [Example 32, 3-(2-isopropyl-3-oxo-2,3-dihydrobenzo[1,4]oxazin-4-yl)propionic acid], at least 3 µM. Consider `CC(C)c1cccc2c1OC(C)(C)C(=O)N2CCC(=O)O` [Example 33, 3-(8-isopropyl-2,2-dimethyl-3-oxo-2,3-dihydrobenzo[1,4]oxazin-4-yl)propionic acid], for which the half-maximal inhibitory concentration (IC50) was at least 3 µM. With `CC(C)c1cccc2c1OC(C)(C)C(=O)N2CC(=O)O` [Example 34, (8-isopropyl-2,2-dimethyl-3-oxo-2,3-dihydrobenzo[1,4]oxazin-4-yl)acetic acid] the figure was at least 3 µM; with `CC(C)c1cccc2c1OCC(=O)N2CCC(=O)O` [Example 35, 3-(8-isopropyl-3-oxo-2,3-dihydrobenzo[1,4]oxazin-4-yl)propionic acid], at least 3 µM.

Turning to `CCC1Oc2c(C(C)C)cccc2N(CC(=O)O)C1=O` (stereo not drawn) [Example 39, (2-ethyl-8-isopropyl-3-oxo-2,3-dihydrobenzo[1,4]oxazin-4-yl)acetic acid], the half-inhibitory concentration (IC50) is at least 3 µM.

Turning to `CCC1Oc2c(C(C)C)cccc2N(CCC(=O)O)C1=O` (stereo not drawn) [Example 40, 3-(2-ethyl-8-isopropyl-3-oxo-2,3-dihydrobenzo[1,4]oxazin-4-yl)propionic acid], the concentration for half-maximal inhibition (IC50) fell in the range of 0.3 to 3 µM. With `CC(C)c1cccc2c1OC(C(C)C)C(=O)N2Cc1ccccc1C(=O)O` (stereo not drawn) [Example 41, 2-[(2,8-diisopropyl-3-oxo-2,3-dihydrobenzo[1,4]oxazin-4-yl)methyl]benzoic acid] the figure was at least 3 µM; with `CC(C)c1cccc2c1OC(C(C)C)C(=O)N2CC(C)(C)C(=O)O` (stereo not drawn) [Example 42, 3-(2,8-diisopropyl-3-oxo-2,3-dihydrobenzo[1,4]oxazin-4-yl)-2,2-dimethylpropionic acid], 0.3 to 3 µM.

Values taken from patent publication US20070197512A1, “Carboxylic Acid Compounds and Use Thereof” (Japan Tobacco Inc., priority 2006, published 2007).
